Measured values taken from patent US5380759A, “Methyl N-[6-(3,4,5-trimethoxybenzloxy)imidazo[1,2-b]pyridazin-2-zyl]carbamate used to treat leukemia” (priority 1987, dated 1995).
Read-outs that look alike come from different tables or passages of the source. Starred links: 1 amine or outer side, 2 acyl side, 3 side chain; linkers in the order of their positions; H or OH if unused. Positions of bridges follow the written chain, without caps; N, C: chain ends. Non-standard residues stand in square brackets, D forms with d. Residues, ends and D or L forms follow the SMILES beside them. Chains are numbered I, II in the order given. Actinocin(9to1) = Cc1c2oc3c(C)ccc(C(=O)[*:1])c3nc-2c(C(=O)[*:2])c(N)c1=O; NMeV = CN[C@H](C(=O)O)C(C)C; Sar = CNCC(=O)O

Assays:
P388/Cis--Pt = test: In vivo activity against drug resistant tumour P388/Cis-Pt; set-up: species or system mouse; settings: optimum dose 5.3 mg/kg
P388/MTX = test: In vivo activity against drug resistant tumour P388/MTX; set-up: species or system mouse; settings: optimum dose 3.0 mg/kg
Method: (§1) CD2-F1 mice, of the same sex, weighing within a 3 gram range surrounding 20 g, are used for this test. Control and test animals are injected intraperitoneally with a suspension of 10^6 viable P388/O tumour cells on day 0. In each test several dose levels which bracket the LD20 for the compound are evaluated; each dose level group contains 6 animals. The test compounds are prepared either in physiologic saline containing 0.05% Tween 80 or distilled water containing 5% dextrose and are administered intraperitoneally on days 1,5 and 9 relative to tumour implant. Doses are on a mg/kg basis according to individual animals' body weights. The day of death for each animal is recorded and the median day of death identified for each group. The difference between the median survival time for treated and control groups is expressed as a percentage increase in life span (% ILS).
(§2) E. Activity Against Drug-Resistant Tumours
(§3) Using a similar procedure to the Lymphocytic Leukaemia P388/O test, the compound of Example 1 was evaluated against P388/O tumours which had been made resistant to the following standard, clinically used anti-tumour agents: […]

microtubule function = settings: cited from earlier work
P388/BCNU = test: In vivo activity against drug resistant tumour P388/BCNU; set-up: species or system mouse; settings: optimum dose 2.0 mg/kg
Method: as §1, §2
Using a similar procedure to the Lymphocytic Leukaemia P388/O test, the compound of Example 1 was evaluated against P388/O tumours which had been made resistant to the following standard, clinically used anti-tumour agents:
bis-chloronitrosourea (BCNU)

P388/ADR = test: In vivo activity against drug resistant tumour P388/ADR; set-up: species or system mouse; settings: optimum dose 4.5 mg/kg
Method: as §1, §2, §3

P388 D1 cells = test: P388 D1 colony-forming assay; assay type: cell-based; settings: Mus musculus
Method: B) P338D1 Colony-forming Assay
In this assay, cells from an in vitro-adapted line of the mouse lymphoid neoplasm, P388 are first exposed to serially diluted concentrations of test compound over a 24 hour period in culture. Thereafter, the ability of such treated cells to form discrete colonies over a 14 day period after resuspension in a semi-solid drug-free medium is determined.
Initially cells in log growth are plated into individual 25 cm^2 tissue culture flasks each containing a final volume of 5 mls of Hepes buffered RPMI 1640 culture medium supplemented with 10 percent foetal calf serum, antibiotics and test compound. All compounds are formulated initially at appropriate concentrations in DMSO, 25 microliters of which is then added to each flask. All compounds are evaluated at concentrations ranging serially in four fold decrements from a top concentration some four fold greater than that already known to inhibit the proliferation of these cells by about 80 to 90 percent in the primary proliferative assay.
After 24 hrs exposure to the test compound the cells are counted and a known number of live cells transferred to a 15 ml centrifuge tube to which 4 mls of a 0.25 percent low temperature gelling agarose solution in complete RPMI tissue culture medium is then added. After 13 days incubation at 37° C., 1 ml of 1% p-Iodonitrotetrazolium violet is added to the top of each tube and allowed to permeate through the agarose for a further 24 to 48 hrs. This dye is metabolised by living cells to produce an insoluble red crystalline product which facilitates counting of the colonies. Samples are taken from each tube and the number of colonies containing a minimum of 50 cells is determined. The concentration of compound necessary to inhibit colony formation by 50 percent relative to that of control cells incubated under identical conditions but in the absence of the test compound is determined.

[1] = system: A549 human lung carcinoma cells; test: In vitro activity against human tumour cell line A549 (proliferation); assay type: cell-based; settings: A549, 96 h
Method: (§4) Cells from the human tumour cell lines DLD-1, HCT-116, WiDr and A549 are exposed to serially diluted concentrations of test compounds over a 96 hour period in culture. The ability of such cells to proliferate over the test period is determined.
(§5) Cells in log growth are plated into 96 well multiwell tissue culture dishes in 100 μl/well of RPMI 1640 culture medium supplemented with 10% foetal calf serum, antibiotics and test compound. All compounds are formulated initially at appropriate concentrations in DMSO, the final concentrations in this solvent being twenty times that required in the plate. A final 1 in 10 dilution in complete medium is then made before adding 100 μl to each well of the plate. All compounds are evaluated at concentrations ranging serially in four fold decrements from a top concentration some four fold greater than that already known to inhibit the proliferation of cells from the mouse lymphoid neoplasm, P388D1 by about 80 to 90 percent in a primary proliferative assay.
(§6) After 96 hours the proliferation of cells exposed to test compound is compared with control untreated cells by one of two methods:
(§7) b) 20 μl of MTT (5 mg/ml in PBS) is added to each well. After an incubation period of 4 hours the medium from each well is aspirated and replaced with 200 μl DMSO to dissolve the formazan crystals formed. Absorbances are read by an ELISA plate spectrophotometer at a wavelength of 540 nm. The IC50 is defined as that concentration of drug which decreases absorbance to 50% of that in control (drug-free) cultures. This method is used for the WiDr, HCT-116 and A549 cell lines.

[2] = system: WiDr human colon adenocarcinoma cells; test: In vitro activity against human tumour cell line WiDr (proliferation); assay type: cell-based; settings: 96 h
Method: as §4, §5, §6, §7

tubulin = test: Turbidimetric assay of tubulin polymerisation; assay type: biochemical, horse; settings: 37° C., increase in A350nm 10 min after lag phase; read-out: Total tubulin polymerisation IC50
Method: A) Tubulin Polymerisation Assay
1. Preparation of tubulin
All manipulations are performed at 4° C. unless otherwise specified. The horse brain is washed in ice-cold BBG buffer and superficial meninges and blood vessels removed. After weighing, cerebral cortices are chopped, homogenised in 75 ml BBG buffer/100 g brain, centrifuged at 6500 g for 15 min and after removal of […], re-centrifuged at 100,000 g for 75 min. The volume of the supernatant (Vml) is measured and V/10 ml 10 mM GTP (Li salt) in H2 O added. The mixture is incubated in sealed centrifuge tubes (30 min, 34° C.) in a shaking water bath to polymerise the tubulin. After polymerisation the tubes are balanced and centrifuged at 100,000 g, (1 h at 27° C.) in a pre-warmed rotor. The high-speed pellet is resuspended in V/4 ml BB buffer and the preparation stirred on ice for 30 min and centrifuged at 100,000 g (1 h at 4° C.) to remove the cold-stable microtubules. An equal volume of BB2G buffer is added to the supernatant which is frozen rapidly in 5 ml samples in plastic weighing dishes floated on a solid CO2 /ethanol slurry, and stored overnight at -80° C. After ca. 18 hours the frozen samples of tubulin are thawed, 10 mM GTP in H2 O added to give a final concentration of 1 mM, and the new volume (Wml), is measured. The polymerisation/depolymerisation cycle is repeated exactly as above but substituting W for V to give twice-cycled tubulin.
2. Turbidimetric Assay of Tubulin Polymerisation
Apparatus: recording spectrophotometer with a 6-position, thermostatted cuvette holder; full scale deflection=0.2 absorbance units.
In a 1 ml spectrophotometer cuvette are mixed 100 μl 10 mM GTP (Li salt) made up in BB buffer, 10 μl H2 O or DMSO-depending on selected drug solvent, BB buffer and tubulin preparation such that the final increase in A350nm is 0.15 units after 16 mins (approx. 100 μl of tubulin prep. or 2.5 mg protein) in a final volume of 1 ml at 37° C. All reagents are stored on ice.
Polymerisation is initiated by raising the temperature to 37° C. and the increase in A350nm of triplicate samples against a reference cuvette is recorded. The reference sample includes a similar incubation mixture either without tubulin or with the addition of 1 mM Ca^2+. The increase over initial A350nm 10 min after the completion of lag phase (control polymerisation is 80% complete within this time) is calculated and expressed as a percentage of the control value, for a range of drug concentrations. The drug concentration required to give a 50% change (IC50) in the control value is determined.

P388/O tumour = test: Lymphocytic leukaemia P388/O test; assay type: in vivo, mouse; settings: Mus musculus, P388, ip
Method: C. Lymphocytic Leukemia P388/O Test
as §1

LD20 (Mouse) = assay type: in vivo; settings: i.p. days 1, 5 and 9, CD2-F1 mice, observed up to 14 days
[3] = system: HCT-116 human colon carcinoma cells; test: In vitro activity against human tumour cell line HCT-116 (proliferation); assay type: cell-based; settings: HCT-116, 96 h
Method: as §4, §5, §6, §7

[4] = system: DLD-1 human colon carcinoma cells; test: In vitro activity against human tumour cell line DLD-1 (proliferation); assay type: cell-based; settings: DLD-1, 96 h
Method: as §4, §5, §6
a) Culture supernatants are aspirated and cells fixed and stained by adding a solution of methylene blue (5 g per liter of 50% ethanol: water, 100 μl/well). After 30 minutes at room temperature unbound stain is washed off by immersing plates in water. Stained cells are solubilised overnight using 1% Sarkosyl (Sigma) in phosphate-buffered saline (100 μl/well). Absorbances are read by an ELISA plate spectrophotometer at a wavelength of 620 nm. The IC50 is defined as that concentration of drug which decreases absorbance to 50% of that in control (drug-free) cultures. This method is used for the DLD-1 cell line.

P388/ActD = test: In vivo activity against drug resistant tumour P388/ActD; set-up: species or system mouse; settings: optimum dose 0.5 mg/kg
Method: as §1, §2, §3

[5] = P388D1, 24 h exposure, 14 days colony growth, read-out: IC50 colony formation

SMILES: N.N.[Cl][Pt][Cl] [Cis--Pt, Cis-platinum, reference compound]
- 60 Day Survivors (P388/Cis--Pt): 0/6
- % ILS (P388/Cis--Pt): +21%

SMILES: CN(Cc1cnc2nc(N)nc(N)c2n1)c1ccc(C(=O)N[C@@H](CCC(=O)O)C(=O)O)cc1 [MTX, methotrexate, reference compound]
- 60 Day Survivors (P388/MTX): 0/6
- % ILS (P388/MTX): +15%

SMILES: COC(=O)Nc1nc2ccc(C(=O)c3cccs3)cc2[nH]1 [nocodazole]
- microtubule inhibitory activity (microtubule function): microtubule inhibitory activity

SMILES: O=NN(CCCl)C(=O)NCCCl [BCNU, bis-chloronitrosourea, reference compound]
- 60 Day Survivors (P388/BCNU): 0/6
- % ILS (P388/BCNU): +36%

SMILES: COc1cccc2c1C(=O)c1c(O)c3c(c(O)c1C2=O)C[C@@](O)(C(=O)CO)C[C@@H]3O[C@H]1C[C@H](N)[C@H](O)[C@H](C)O1 [ADR, adriamycin, reference compound]
- 60 Day Survivors (P388/ADR): 0/6
- % ILS (P388/ADR): +27%

SMILES: CCOC(=O)Nc1cc2c(c(N)n1)N=C(CN(C)c1ccccc1)CN2 [NSC-181928]
- microtubule inhibitory activity (microtubule function): microtubule inhibitory activity

SMILES: COCCOC(=O)Nc1cn2nc(OCc3cc(OC)c(OC)c(OC)c3)ccc2n1 [Example 8, 2-Methoxyethyl N-[6-(3,4,5-trimethoxybenzyloxy)imidazo[1,2-b]pyridazin-2-yl]carbamate]
- IC50 (P388 D1 cells; [5]): 2.93 nM
- IC50 ([1]; MTT, read-out: IC50): 39 nM
- IC50 ([2]; MTT, read-out: IC50): 41 nM
- IC50 (tubulin): 230 nM
- ILS at 10 mg/kg (P388/O tumour; 10 mg/kg i.p. days 1, 5 and 9): 44%
- LD50 (LD20 (Mouse)): 15 mg/kg
- IC50 ([3]; MTT, read-out: IC50): 20.5 nM
- IC50 ([4]; methylene blue, read-out: IC50): 8.82 nM

SMILES: Cc1c2oc3c(C)ccc(C(=O)N[C@@H]4C(=O)N[C@H](C(C)C)C(=O)N5CCC[C@H]5C(=O)N(C)CC(=O)N(C)[C@@H](C(C)C)C(=O)O[C@@H]4C)c3nc-2c(C(=O)N[C@@H]2C(=O)N[C@H](C(C)C)C(=O)N3CCC[C@H]3C(=O)N(C)CC(=O)N(C)[C@@H](C(C)C)C(=O)O[C@@H]2C)c(N)c1=O [ActD, actinomycin D, reference compound] (I: T[dV]P[Sar][NMeV] / II: T[dV]P[Sar][NMeV]; ester I:1-I:C, II:1-II:C; linker I:N-II:N via Actinocin(9to1))
- 60 Day Survivors (P388/ActD): 0/6
- % ILS (P388/ActD): +27%

SMILES: CCOC(=O)Nc1ccc(SCC2COC(Cn3ccnc3)(c3ccc(Cl)cc3Cl)O2)cc1 (stereo not shown) [tubulazole]
- microtubule inhibitory activity (microtubule function): microtubule inhibitory activity

SMILES: CCOC(=O)Nc1cn2nc(OCc3cc(OC)ccc3OC)ccc2n1 [Example 2, Ethyl N-[6-(2,5-Dimethoxybenzyloxy)imidazo[1,2-b]pyridazin-2-yl]carbamate]
- IC50 (P388 D1 cells; P388D1, read-out: IC50 colony formation): 0.516 nM
- IC50 [1]: 3.42 nM
- IC50 [2]: 4.57 nM
- IC50 (tubulin): 140 nM
- ILS at 7.3 mg/kg (P388/O tumour): 31%
- LD50 (LD20 (Mouse)): 5 mg/kg
- IC50 [3]: 2.8 nM
- IC50 [4]: 2.9 nM

SMILES: COC(=O)Nc1cn2nc(OCc3cc(OC)ccc3OC)ccc2n1 [Example 3, Methyl N-[6-(2,5-Dimethoxybenzyloxy)imidazo[1,2-b]pyridazin-2-yl]carbamate]
- IC50 (P388 D1 cells; [5]): 2.15 nM
- IC50 [1]: 1.92 nM
- IC50 ([2]; MTT, read-out: IC50): 0.92 nM
- IC50 (tubulin): 410 nM
- ILS at 50 mg/kg (P388/O tumour; 50 mg/kg i.p. days 1, 5 and 9): 136%
- LD50 (LD20 (Mouse)): 200 mg/kg
- IC50 ([3]; MTT, read-out: IC50): 1.91 nM
- IC50 ([4]; methylene blue, read-out: IC50): 1.35 nM
